Earlier results, collected in patent US20160317662A1, “STABLE ORAL PHARMACEUTICAL COMPOSITION” (H[…].A., priority 2013, published 2016).

Details: aqueous solutions; state of the art

Which “pH around which solutions are relatively stable” value does the source give for `COc1ccc2c3c1O[C@H]1[C@@H](O)C=C[C@H]4C(C2)N(C)CC[C@@]341` [codeine, codein phosphate hemihydrate] here?
Its value is about 3.5.
